# Patent US11530186B2, “Inhibitors for the β-catenin / T-cell factor protein-protein interaction” (H. LEE MOFFITT CANCER CENTER AND RESEARCH INSTITUTE, INC., priority 2018, dated 2022)
# Where two headings read alike, the source gives them in different places.
# Columns and labels:
# HCT116 cells = assay: MTS cell viability assay, HCT116; format: cell-based; conditions: Homo sapiens, HCT-116; 72 h; mean ± SD (n = 3); Table 5; read-out: MTS cell viability IC50, Wnt hyperactive cancer cells HCT116
# Protocol: (§1) MTS Cell Viability Assay. Colorectal cancer cells (SW480 and HCT116), TNBC cells (MDA-MB-231, MDA-MB-468, and BT-20), and lung cancer A549 cells were seeded in 96-well plates at 5×10^3 cells/well, maintained overnight at 37° C., and incubated with the tested compounds at various concentrations. Cell viability was monitored after 72 h using a freshly prepared mixture of 1 part phenazine methosulfate (PMS, Sigma) solution (0.92 mg/mL) and 19 parts 3-(4,5-dimethylthiazol-2-yl)-5-(3-carboxymethoxyphenyl)-2-(4-sulfophenyl)-2H-tetrazolium (MTS, Promega) solution (2 mg/mL). Cells were incubated in 10 μL of this solution at 37° C. for 3 h, and A490 was measured. The effect of each compound is expressed as the concentration required to reduce A490 by 50% (IC50) relative to DMSO-treated cells. Experiments were performed in triplicate.
# SW480 cells = assay: MTS cell viability assay, SW480; format: cell-based; conditions: Homo sapiens, SW480, 72 h, mean ± SD (n = 3)
# Protocol: as §1
# [1] = target: T1, β-catenin/Tcf protein-protein interaction (Homo sapiens, UniProt P35222); assay: FP competitive inhibition assay; format: binding
# T1 construct: Wild-type β-catenin (residues 138-781) were cloned into a pET-28b vector; 6×histidine (C); made in house; host or cells: E. coli BL21 DE3
# T1 sequence (P35222 138-781): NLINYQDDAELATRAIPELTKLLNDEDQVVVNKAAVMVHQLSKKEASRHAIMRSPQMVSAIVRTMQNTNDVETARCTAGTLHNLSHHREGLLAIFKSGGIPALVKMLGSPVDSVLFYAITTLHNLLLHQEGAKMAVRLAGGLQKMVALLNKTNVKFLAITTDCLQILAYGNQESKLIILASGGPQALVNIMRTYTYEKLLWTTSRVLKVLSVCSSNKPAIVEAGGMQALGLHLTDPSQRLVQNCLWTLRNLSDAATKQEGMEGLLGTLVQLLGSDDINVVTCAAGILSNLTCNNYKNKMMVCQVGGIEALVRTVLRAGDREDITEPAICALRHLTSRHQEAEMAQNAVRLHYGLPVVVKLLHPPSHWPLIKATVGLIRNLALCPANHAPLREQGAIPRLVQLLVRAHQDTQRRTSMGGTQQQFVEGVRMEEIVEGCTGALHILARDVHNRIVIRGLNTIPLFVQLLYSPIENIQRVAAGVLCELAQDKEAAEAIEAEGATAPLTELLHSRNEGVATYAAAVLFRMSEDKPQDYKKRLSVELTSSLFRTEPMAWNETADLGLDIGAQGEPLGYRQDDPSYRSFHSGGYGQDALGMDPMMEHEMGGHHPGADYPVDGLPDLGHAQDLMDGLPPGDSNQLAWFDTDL
# In short: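 His-tagged human β-catenin (residues 138-781, E. coli-expressed) at 10 nM with 2.5 nM fluorescein-labeled Tcf4 (7-51) in PBS-type buffer with bovine γ-globulin and 0.01% Triton X-100. Compounds added, 1.5 h at 4 °C, 1% DMSO, before fluorescence polarization read. IC50 by nonlinear fit; Ki derived from IC50.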
# [2] = Table 5, read-out: MTS cell viability IC50, Wnt hyperactive cancer cells SW480
# [3] = Assay 1, mean ± SD (n = 3), read-out: Ki ± SD, Assay 1
# [4] = Assay 2, mean ± SD (n = 3), read-out: Ki ± SD, Assay 2
# [5] = Assay 3, mean ± SD (n = 3), read-out: Ki ± SD, Assay 3
# [6] = Assay 4, mean ± SD (n = 3), read-out: Ki ± SD, Assay 4
# [7] = Table 4, read-out: MTS cell viability IC50, Wnt hyperactive SW480 Cells (converted)
"Ki [1, 3] [µM]","Ki [1, 4] [µM]",SMILES,further results
3.1 ± 0.18,7.6 ± 0.55,"COc1ccc2sc(CCc3c(CCc4ccc(Cl)cc4)c4cc(C(=O)NCc5ccon5)ccc4n3CCc3nn[nH]n3)nc2c1 [Compound 62, 1-(2-(2H-tetrazol-5-yl)ethyl)-3-(4-chlorophenethyl)-N-(isoxazol-3-ylmethyl)-2-(2-(5-methoxybenzo[d]thiazol-2-yl)ethyl)-1H-indole-5-carboxamide]",IC50 (HCT116 cells): 28 ± 3.8 µM; IC50 (SW480 cells; [2]): 21 ± 2.1 µM
0.4 ± 0.14,0.97 ± 0.14,"Cc1ccc(CCc2c(-c3ccsc3)n(CCc3nn[nH]n3)c3ccc(C(=O)O)cc23)cc1 [Compound 78, 1-(2-(2H-tetrazol-5-yl)ethyl)-3-(4-methylphenethyl)-2-(thiophen-3-yl)-1H-indole-5-carboxylic acid]","IC50 (HCT116 cells): > 400 µM; IC50 (SW480 cells; [2]): > 400 µM; Ki [1, 5]: 0.25 ± 0.079 µM; Ki [1, 6]: 0.36 ± 0.07 µM; Ki ([1]; Assay 5, mean ± SD (n = 3), read-out: Ki ± SD, Assay 5): 0.23 µM"
1 ± 0.094,2.9 ± 0.24,"COc1ccc2sc(CCc3c(CCc4ccc(Cl)cc4)c4cc(C(=O)NCc5ccno5)ccc4n3CCc3nn[nH]n3)nc2c1 [Compound 61, 1-(2-(2H-tetrazol-5-yl)ethyl)-3-(4-chlorophenethyl)-N-(isoxazol-5-ylmethyl)-2-(2-(5-methoxybenzo[d]thiazol-2-yl)ethyl)-1H-indole-5-carboxamide]",IC50 (HCT116 cells): 40 ± 5.3 µM; IC50 (SW480 cells; [2]): 35 ± 4.3 µM
0.34 ± 0.043,0.24 ± 0.043,"Cc1ccc(CCc2c(-c3ccsc3)n(CCc3nn[nH]n3)c3ccc(C(=O)NO)cc23)cc1 [Compound 90, 1-(2-(2H-tetrazol-5-yl)ethyl)-N-hydroxy-3-(4-methylphenethyl)-2-(thiophen-3-yl)-1H-indole-5-carboxamide]",IC50 (HCT116 cells): 133 ± 4.1 µM; IC50 (SW480 cells; [2]): 115 ± 22 µM
4.2 ± 0.43,1.9 ± 0.17,"COc1ccc2sc(CCc3c(CCc4ccc(Cl)cc4)c4cc(C(=O)NCc5ccncc5)ccc4n3CCc3nn[nH]n3)nc2c1 [Compound 56, 1-(2-(2H-tetrazol-5-yl)ethyl)-3-(4-chlorophenethyl)-2-(2-(5-methoxybenzo[d]thiazol-2-yl)ethyl)-N-(pyridin-4-ylmethyl)-1H-indole-5-carboxamide]",IC50 (HCT116 cells): 23 ± 2.5 µM; IC50 (SW480 cells; [2]): 14 ± 1.7 µM
–,–,"COC(=O)CCn1c(CCc2nc3ccccc3s2)c(CCc2ccc(Cl)cc2)c2cc(C(=O)OC)ccc21 [Compound 43, Methyl 2-(2-(benzo[d]thiazol-2-yl)ethyl)-3-(4-chlorophenethyl)-1-(3-methoxy-3-oxopropyl)-1H-indole-5-carboxylate]",IC50 (SW480 cells; [7]): > 400 µM
2.4 ± 0.56,3.2 ± 0.24,"COc1ccc2sc(CCc3c(CCc4ccc(Cl)cc4)c4cc(C(=O)NCc5ccc(Cl)cc5)ccc4n3CCc3nn[nH]n3)nc2c1 [Compound 48, 1-(2-(2H-tetrazol-5-yl)ethyl)-N-(4-chlorobenzyl)-3-(4-chlorophenethyl)-2-(2-(5-methoxybenzo-[d]thiazol-2-yl)ethyl)-1H-indole-5-carboxamide]",IC50 (SW480 cells; [7]): 9.3 ± 4.9 µM
550 ± 56,–,"O=C(O)c1ccc2c(ccn2CCc2nn[nH]n2)c1 [Compound 4, 1-(2-(2H-tetrazol-5-yl)ethyl)-1H-indole-5-carboxylic acid]",–
62 ± 12,–,"O=C(O)c1ccc2c(c1)c(CCc1ccccc1)cn2CCc1nn[nH]n1 [Compound 5, 1-(2-(2H-tetrazol-5-yl)ethyl)-3-phenethyl-1H-indole-5-carboxylic acid]",–
> 25,> 25,"O=C(NCc1ccon1)c1ccc2c(c1)c(CCC1CCOCC1)c(-c1ccsc1)n2CCc1nn[nH]n1 [Compound 96, 1-(2-(2H-tetrazol-5-yl)ethyl)-N-(isoxazol-3-ylmethyl)-3-(2-(tetrahydro-2H-pyran-4-yl)ethyl)-2-(thiophen-3-yl)-1H-indole-5-carboxamide]",–
348 ± 1.3,780 ± 100,"Cc1cn(CCc2nn[nH]n2)c2ccccc12 [Compound 2, 1-(2-(2H-tetrazol-5-yl)ethyl)-3-methyl-1H-indole]",–
7.4 ± 1.4,10 ± 0.66,"COc1ccc2sc(CCc3c(CCc4ccc(Cl)cc4)c4cc(C(=O)Nc5ccc(Cl)cc5)ccc4n3CCc3nn[nH]n3)nc2c1 [Compound 47, 1-(2-(2H-tetrazol-5-yl)ethyl)-3-(4-chlorophenethyl)-N-(4-chlorophenyl)-2-(2-(5-methoxybenzo[d]thiazol-2-yl)ethyl)-1H-indole-5-carboxamide]","Ki [1, 5]: 2.1 ± 0.26 µM; Ki [1, 6]: 2.1 ± 0.27 µM"
26 ± 2.3,19 ± 2.5,"O=C(O)c1ccc2c(c1)c(CCc1ccc(Cl)cc1)cn2CCc1nn[nH]n1 [Compound 6, 1-(2-(2H-tetrazol-5-yl)ethyl)-3-(4-chlorophenethyl)-1H-indole-5-carboxylic acid]",–
1.8 ± 0.11,0.68 ± 0.059,"COc1ccc2nc(C#Cc3c(CCc4ccc5c(c4)OCCO5)c4cc(C(=O)O)ccc4n3CCc3nn[nH]n3)sc2c1 [Compound 75, 1-(2-(2H-tetrazol-5-yl)ethyl)-3-(2-(2,3-dihydrobenzo[b][1,4]dioxin-6-yl)ethyl)-2-((6-methoxybenzo[d]thiazol-2-yl)ethynyl)-1H-indole-5-carboxylic acid]",–
78 ± 10,–,COc1ccc(CCc2cn(CCc3nn[nH]n3)c3ccc(C(=O)O)cc23)cc1 [Compound 8],–
1.3 ± 0.4,–,"COCCOc1ccc2sc(CCc3c(CCc4ccc(Cl)cc4)c4cc(C(=O)NCc5ccc(Cl)cc5)ccc4n3CCc3nn[nH]n3)nc2c1 [Compound 46, 1-(2-(2H-tetrazol-5-yl)ethyl)-N-(4-chlorobenzyl)-3-(4-chlorophenethyl)-2-(2-(5-(2-methoxy-ethoxy)benzo[d]thiazol-2-yl)ethyl)-1H-indole-5-carboxamide]",–
0.83 ± 0.048,3.7 ± 0.23,"COc1ccc2sc(CCc3c(CCc4ccc(Cl)cc4)c4cc(C(=O)NCc5ccsc5)ccc4n3CCc3nn[nH]n3)nc2c1 [Compound 59, 1-(2-(2H-tetrazol-5-yl)ethyl)-3-(4-chlorophenethyl)-2-(2-(5-methoxybenzo[d]thiazol-2-yl)ethyl)-N-(thiophen-3-ylmethyl)-1H-indole-5-carboxamide]",–
0.61 ± 0.065,–,"O=C(O)c1ccc2c(c1)c(CCc1ccc3ccccc3c1)c(CCc1nc3ccccc3s1)n2CCc1nn[nH]n1 [Compound 36, 1-(2-(2H-tetrazol-5-yl)ethyl)-2-(2-(benzo[d]thiazol-2-yl)ethyl)-3-(2-(naphthalen-2-yl)ethyl)-1H-indole-5-carboxylic acid]",–
1.1 ± 0.12,1.6 ± 0.23,"O=C(O)c1ccc2c(c1)c(CCc1ccc(-c3ccccc3)cc1)cn2CCc1nn[nH]n1 [Compound 18, 1-(2-(2H-tetrazol-5-yl)ethyl)-3-(2-([1,1′-biphenyl]-4-yl)ethyl)-1H-indole-5-carboxylic acid]",–
0.92 ± 0.1,1.9 ± 0.13,"Cc1ccc(CCc2c(-c3csc(C(F)F)c3)n(CCc3nn[nH]n3)c3ccc(C(=O)O)cc23)cc1 [Compound 80, 1-(2-(2H-tetrazol-5-yl)ethyl)-2-(5-(difluoromethyl)thiophen-3-yl)-3-(4-methylphenethyl)-1H-indole-5-carboxylic acid]",–
4.6 ± 0.36,3.5 ± 0.71,"O=C(O)c1ccc2c(c1)c(CCc1cccc3ccccc13)cn2CCc1nn[nH]n1 [Compound 14, 1-(2-(2H-tetrazol-5-yl)ethyl)-3-(2-(naphthalen-1-yl)ethyl)-1H-indole-5-carboxylic acid]",–
990 ± 36,–,"O=C(O)c1cccc(CCc2nn[nH]n2)c1 [Compound 1, 3-(2-(2H-tetrazol-5-yl)ethyl)benzoic acid]",–
